Test results reported in patent US9850207B2, “Substituted piperidines as soluble epdxide hydrolase inhibitors” (The Regents of the University of California, priority 2012, dated 2017).

System: streptozocin (STZ)-induced type I diabetes model of neuropathic pain
Experiment: streptozocin (STZ)-induced type I diabetes model of neuropathic pain (von Frey mechanical withdrawal threshold)
Assay type: in vivo
Conditions: rats, 10 mpk, as compared to 10 mpk of celecoxib; average of 6 rats (FIG. 3)
Procedure: Diabetic neuropathic pain was modeled using streptozocin which targets and kills the pancreatic beta islet cells rendering the animals with type I diabetes. The rats were acclimated for one hour and tested for baseline thresholds before inducing diabetes. The baseline mechanical withdrawal thresholds were established using the von Frey mechanical nociceptive test with an electronic anesthesiometer (IITC, Woodland Hills, Calif.). Subsequently, streptozocin (55 mg/kg) in saline was injected via tail vein per previously reported methods (Aley, K. O. and Levine J. D. J. Pain 2001, 2, 146.). After five days the allodynia of diabetic rats was confirmed with the von Frey nociceptive assay. Rats were placed in clear acrylic chambers on a steel mesh floor. The hind paw of the rat was probed through the mesh with a rigid tip probe connected to the electronic readout pressure meter set to the maximum hold setting. The withdrawal thresholds per rat were measured 3-5 times at 1 minute intervals for each time point.
The baseline diabetic allodynia was quantified again at the beginning of all test days. The rats were then administered vehicle or sEH inhibitor via oral gavage and tested at 30 min. 1, 2, 3, 4, 5, and 6 h for mechanical withdrawal thresholds. […]

CC(=O)N1CCC(NC(=O)NC23CC4CC(CC(C4)C2)C3)CC1 [UC1153]
pain response (% of baseline; below 60% of baseline is painful state, 100% is lack of enhanced pain detection): significantly alleviate the pain response
